We go through 38 compounds from US20240351996A1, “CDK19-SELECTIVE INHIBITORS, AND METHODS OF USE THEREOF” (CZ BIOHUB SF, LLC, priority 2022, published 2024).

The target of one experiment is CDK19/CycC (Homo sapiens, UniProt Q9BWU1). Nature of the experiment: LanthaScreen europium kinase binding assay (FRET displacement), CDK19. Conditions: for CDK19 Selectivity: CDK19/CDK8 selectivity based on IC50 values; for pIC50: his-tagged CDK19/CycC 5 nM, tracer 10 nM, 3 h incubation. The method, then:
(§1) FRET Displacement Assay to Measure IC50: The CDK19/CDK8 IC50 values were measured to evaluate activity and to determine CDK19/CDK8 selectivity. The IC50 values of the disclosed compounds was measured using a LanthaScreen™ europium kinase binding assay (ThermoFisher), as described herein.
To a kinase buffer cocktail solution (i.e., 5× Kinase Buffer A) was added: purified recombinant his-tagged CDK19/CycC protein (5 nM), ATP-competitive kinase inhibitor scaffold kinase tracer Alexa Fluor® 665 (10 nM), biotin anti-his tag antibody (2 nM), LanthaScreen® europium-streptavidin (2 nM). An aliquot of the cocktail solution (10 μL) was added to each well of a LUMITRAC™ 200:384 flat bottom, non-treated microtiter white plate. The plate was then covered to protect light sensitive reagents and incubated for 30 min at room temperature to equilibrate before addition of any inhibitors.
(§2) A serial dilution of the compounds was titrated into each well using an automated liquid handling Staccato integrated system at the following concentration(s) (Log10 Molar [C]): −4.5, −5.0, −5.5, −6.0, −6.5, −7.0, −7.5, −8.0 so that a complete dose-response could be calculated. A Tecan microplate reader infinite m200 instrument was then used to measure the FRET signal of each individual well using an excitation of 317/20 nm, emission europium of 620/12 nm, and emission kinase tracer of 665/12 nm after a 3 h incubation period at room temperature until steady-state kinetics were achieved.
(§3) Results were performed in duplicate and were repeated a total of 3 independent times before data was normalized to the DMSO control group and IC50 values reported.

The target in another experiment is CDK8 (Homo sapiens, UniProt P49336). Nature of the experiment: LanthaScreen europium kinase binding assay (FRET displacement), CDK8. The method, then: as §1
[…] An aliquot of the cocktail solution (10 μL) was added to each well of a LUMITRAC™ 200:384 flat bottom, non-treated microtiter white plate. The plate was then covered to protect light sensitive reagents and incubated for 30 min at room temperature to equilibrate before addition of any inhibitors.
as §2, §3

pIC50: −log10 of the molar value.

Sequence of CDK19/CycC (Q9BWU1 whole entry): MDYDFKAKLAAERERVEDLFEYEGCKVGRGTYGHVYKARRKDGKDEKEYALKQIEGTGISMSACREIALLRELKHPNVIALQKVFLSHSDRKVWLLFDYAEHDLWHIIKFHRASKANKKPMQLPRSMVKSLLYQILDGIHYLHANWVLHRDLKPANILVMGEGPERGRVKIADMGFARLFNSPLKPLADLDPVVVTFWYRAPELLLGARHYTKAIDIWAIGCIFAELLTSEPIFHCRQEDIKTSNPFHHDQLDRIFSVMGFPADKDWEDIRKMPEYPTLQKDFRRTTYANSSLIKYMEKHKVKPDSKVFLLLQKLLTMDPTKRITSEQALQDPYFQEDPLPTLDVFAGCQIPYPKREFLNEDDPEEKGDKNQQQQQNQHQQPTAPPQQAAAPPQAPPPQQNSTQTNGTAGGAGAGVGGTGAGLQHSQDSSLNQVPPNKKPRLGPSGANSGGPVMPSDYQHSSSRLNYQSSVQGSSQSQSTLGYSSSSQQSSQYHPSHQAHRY
Sequence of CDK19/CycC (P24863 whole entry partner): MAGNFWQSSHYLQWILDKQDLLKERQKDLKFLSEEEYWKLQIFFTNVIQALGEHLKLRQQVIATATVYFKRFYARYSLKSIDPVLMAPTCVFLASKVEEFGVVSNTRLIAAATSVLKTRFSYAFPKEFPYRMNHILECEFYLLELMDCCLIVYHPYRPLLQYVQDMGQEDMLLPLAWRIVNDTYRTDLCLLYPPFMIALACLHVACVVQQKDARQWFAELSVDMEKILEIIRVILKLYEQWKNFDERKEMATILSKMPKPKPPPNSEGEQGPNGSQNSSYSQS
Sequence of CDK8 (P49336 whole entry): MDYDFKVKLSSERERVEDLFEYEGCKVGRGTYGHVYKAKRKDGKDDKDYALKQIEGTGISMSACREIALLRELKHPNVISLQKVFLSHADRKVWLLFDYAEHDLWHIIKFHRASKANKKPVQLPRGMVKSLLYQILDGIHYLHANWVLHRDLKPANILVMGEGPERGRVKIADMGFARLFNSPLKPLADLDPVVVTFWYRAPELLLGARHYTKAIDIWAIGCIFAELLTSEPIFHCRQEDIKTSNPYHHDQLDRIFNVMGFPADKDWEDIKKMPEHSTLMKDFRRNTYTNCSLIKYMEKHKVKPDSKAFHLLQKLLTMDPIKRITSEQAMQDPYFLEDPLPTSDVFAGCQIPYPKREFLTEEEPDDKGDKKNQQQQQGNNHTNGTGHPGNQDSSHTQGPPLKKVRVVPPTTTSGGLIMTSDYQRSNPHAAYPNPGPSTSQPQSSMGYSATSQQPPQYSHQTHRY
Sequence of CDK8 (P24863 whole entry partner): as the sequence (P24863 whole entry partner) above

In the case of `CC(C)Cc1ccc(Nc2ncc(C(=O)c3ccncc3C3CC3)cn2)cc1` [Compound A72], at CDK19/CycC, the “CDK19 Selectivity” value is given as not below 14 and the pIC50 is not below 8.60. The pIC50 at CDK8 is 7.47.
In the case of `Cc1cc(C#N)cc(-c2cnc(Nc3ccc(CC(C)C)cc3)nc2)c1` [Compound A94], on CDK19/CycC, the “CDK19 Selectivity” value is listed as 2 and the pIC50 is 6.36. This compound also showed a pIC50 on CDK8 of 6.06.
For the compound `c1cc(Nc2cnc(Nc3ccc(C4CCOCC4)cc3)nc2)c(OC2CCCC2)cn1` [Compound A180], the pIC50 on CDK19/CycC is 8.40; at CDK8, 8.22.
In the same order, the values of `Cc1cc(Nc2cnc(Nc3ccc(C4CC4)cc3)nc2)cc(C)n1` [Compound A18] are 5.00 and 5.00.
As to `FC(F)C(F)(F)Oc1ccc(Nc2ncc(Nc3ccncc3)cn2)cc1` [Compound A19], the “CDK19 Selectivity” value on CDK19/CycC turned out to be 4.2. Moreover, the pIC50 at CDK19/CycC was 8.04; on CDK8 it was 7.42.
The matching figures for `CC(C)Cc1ccc(Nc2ccc(C(=O)c3ccncc3F)cn2)cc1` [Compound A122]: 5, 7.51 and 6.80.
For the compound `Fc1ccc(Nc2ncc(Oc3ccncc3)cn2)cc1` [Compound A142], at CDK19/CycC, the “CDK19 Selectivity” value came out at 1 and the pIC50 was 5.00. The compound further showed a pIC50 on CDK8 of 5.00.
In the case of `Fc1ccc(Nc2ccc(Oc3ccncc3)cn2)cc1` [Compound A81], the pIC50 on CDK19/CycC and at CDK8 was 5.00 each time.
Consider `Cc1cc(CC(C)C)ccc1Nc1ncc(C(=O)c2ccncc2OC2CCCC2)cn1` [Compound A172], for which the “CDK19 Selectivity” value at CDK19/CycC worked out at 2. Moreover, the pIC50 was 8.30 on CDK19/CycC and 7.96 at CDK8.
The matching figures for `Cc1nc(Nc2ccc(CC(C)C)cc2)ncc1Nc1ccncc1` [Compound A6]: 5.5, 7.42 and 6.68.
In the same order, the values of `Cc1cc(CC(C)C)ccc1Nc1ncc(C(=O)c2ccncc2)cn1` [Compound A128] are 3.8, 8.05 and 7.47.
Turning to `CC(C)Cc1ccc(Nc2ccc(-c3ccc(C#N)cc3)cn2)cc1` [Compound A79], the pIC50 on CDK19/CycC and on CDK8 was 5.00 throughout.
With `Cc1cc(Nc2cnc(Nc3ccc(C4CC4)cc3)nc2)ccn1` [Compound A17], at CDK19/CycC, the “CDK19 Selectivity” value is recorded as 2.8 and the pIC50 is 6.38. For the same compound, on CDK8, the pIC50 is 5.94.
In turn, `O=C(NC1CCCC1)c1cnccc1Nc1cnc(Nc2ccc(C3CCCCC3)cc2)nc1` [Compound A151] showed a pIC50 on CDK19/CycC of 5.95.
Regarding `CCCc1ccc(Nc2ncc(Nc3ccnc4ccccc34)cn2)cc1` [Compound A15], at CDK19/CycC, the “CDK19 Selectivity” value is 1.1 and the pIC50 was 7.02. The compound also showed a pIC50 at CDK8 of 6.96.
Take `Cc1cc(Nc2cnc(Nc3cccc(C4CC4)c3)nc2)ccn1` [Compound A24]: the pIC50 on CDK19/CycC is 5.01; at CDK8, 5.00.
On to `CC(C)Cc1ccc(Nc2ncc(-c3cccc(C#N)c3)cn2)cc1` [Compound A92], for which, on CDK19/CycC, the “CDK19 Selectivity” value amounted to 3 and the pIC50 was 6.47. The compound also gave a pIC50 at CDK8 of 5.99.
With `FC(F)(F)Oc1ccc(Nc2ncc(Nc3ccncc3)cn2)cc1` [Compound A145], the “CDK19 Selectivity” value on CDK19/CycC came out at 2. Further, the values for the pIC50 at CDK19/CycC and on CDK8 were 7.44 and 7.14, respectively.
In the same order, the values of `CC(C)Cc1ccc(Nc2ncc(C(=O)c3ccncc3OC3CCCC3)cn2)c(F)c1` [Compound A176] are 2, 8.15 and 7.89.
Take `Cc1cc(C#N)ccc1-c1cnc(Nc2ccc(CC(C)C)cc2)nc1` [Compound A90]: at CDK19/CycC, the “CDK19 Selectivity” value is listed as 4.6 and the pIC50 was 5.97. On CDK8, this compound had a pIC50 of 5.31.
As to `FC(F)(F)c1cnccc1Nc1cnc(Nc2ccc(C3CCOCC3)cc2)nc1` [Compound A181], at CDK19/CycC, the “CDK19 Selectivity” value is on record as not above 1 and the pIC50 is not below 8.60. The compound further had a pIC50 on CDK8 not below 8.60.
With `CC(C)Cc1ccc(Nc2ncc(Nc3cc(F)ncc3F)cn2)cc1` [Compound A175], the “CDK19 Selectivity” value at CDK19/CycC is 4. In addition, the pIC50 on CDK19/CycC was 7.44; at CDK8, 6.89.
The matching figures for `Cc1cc(Nc2ncc(Nc3ccncc3)cn2)ccc1F` [Compound A41]: 1, 5.05 and 5.05.
The matching figures for `Cc1cncc(F)c1C(=O)c1cnc(Nc2ccc(CC(C)C)cc2)nc1` [Compound A117]: 1.5, 5.19 and 5.00.
In the same order, the values of `CC(C)Cc1ccc(Nc2ncc(C(=O)c3ccncc3OC3CCCC3)cn2)cc1` [Compound A170] are 2, 8.40 and 8.15.
Regarding `CCc1cnccc1Nc1cnc(Nc2ccc(C3CCCCC3)cc2)nc1` [Compound A68], on CDK19/CycC, the “CDK19 Selectivity” value amounted to 1. The pIC50 at CDK19/CycC and on CDK8 was 7.92 in each case.
In the case of `CC(C)Cc1ccc(Nc2ncc(Cc3ccncc3)cn2)cc1` [Compound A138], on CDK19/CycC, the “CDK19 Selectivity” value is 4.8 and the pIC50 was 8.30. Also, at CDK8, the pIC50 was 7.62.
Consider `Cc1cc(Nc2cnc(Nc3cccc(C4CC4)c3)nc2)cc(C)n1` [Compound A27], for which the pIC50 at CDK19/CycC and on CDK8 was 5.00 each time.
Consider `COc1cc(Nc2cnc(Nc3cccc(CC(C)C)c3)nc2)ccn1` [Compound A33], for which, on CDK19/CycC, the “CDK19 Selectivity” value is recorded as 3 and the pIC50 is 6.02. The same compound gave a negative logarithm of the IC50 (pIC50) on CDK8 of 5.54.
The matching figures for `CC(C)Cc1ccc(Nc2ncc(Nc3cccnc3)cn2)cc1` [Compound A52, N2-(4-isobutylphenyl)-N5-(pyridin-3-yl)pyrimidine-2,5-diamine]: 5, 6.15 and 5.45.
Take `COc1cc(Nc2cnc(Nc3ccc(CC(C)C)cc3)nc2)ccn1` [Compound A23]: the “CDK19 Selectivity” value at CDK19/CycC is on record as 4.5. Further, the pIC50 on CDK19/CycC is 7.00; at CDK8, 6.35.
The matching figures for `CC(C)Cc1ccc(Nc2ncc(NC(=O)c3ccncc3)cn2)cc1` [Compound A48, N-(2-((4-isobutylphenyl)amino)pyrimidin-5-yl) isonicotinamide]: 5.3, 5.81 and 5.09.
The matching figures for `CC(C)Cc1ccc(Nc2ncc(C(=O)c3cccnc3)cn2)cc1` [Compound A133]: 3, 6.58 and 6.10.
Turning to `CC(C)Cc1ccc(Nc2ncc(Nc3ccncc3)cn2)cc1` [Compound A140], the “CDK19 Selectivity” value on CDK19/CycC is given as 2.5.
For the compound `Cc1cc(Nc2cnc(Nc3ccc(CC(C)C)cc3)nc2)ccn1` [Compound A144], on CDK19/CycC, the “CDK19 Selectivity” value worked out at 2.5.
`Cc1cc(CC(C)C)cc(Nc2ncc(Nc3ccncc3)cn2)c1` [Compound A40] gave a pIC50 at CDK19/CycC of 4.60.
For `Cc1cc(Nc2cnc(Nc3ccc(CC(C)C)cc3)nc2)ccn1` [Compound A8], at CDK19/CycC, the “CDK19 Selectivity” value was determined as 3.3.
With `CC(C)Cc1ccc(Nc2ncc(Nc3ccncc3)cn2)cc1` [Compound A5], the “CDK19 Selectivity” value at CDK19/CycC came to 3.
